# Assay results: ChEMBL document CHEMBL6182913, “Design of Potent Small-Molecule Stimulator of Interferon Gene Inhibitor and Stimulator of Interferon Gene Mutant-Specific Degrader” (J Med Chem, 2025)
# Active and inactive are the calls of the source. The calls are words filed in the database; no cut-off is given here.
# How the values were obtained:
# [1] = biological target: Stimulator of interferon genes protein (Homo sapiens, UniProt Q86WV6, G230A/R293Q/R71H); experiment: Inhibition of cGAMP-induced STING HAQ mutant transfected in human THP1-Blue ISG cells preincubated with compound for 6 hrs followed by cGAMP addition and measured after 18 hrs by QUANTI-Blue based microplate reader analysis; assay type: cell-based
# [2] = Cytotoxicity against human THP1-Blue ISG cells assessed as inhibition of cell growth at 10 uM incubated for 24 hrs by MTS assay relative to control; assay type: toxicity, cell-based
# [3] = biological target: T1, Stimulator of interferon genes protein (Homo sapiens, UniProt Q86WV6); experiment: Inhibition of cGAMP-induced STING S154 mutant transfected in human THP-1 cells preincubated with compound for 6 hrs followed by cGAMP addition and measured after 18 hrs by QUANTI-Luc based microplate reader analysis; assay type: cell-based
# Target sequence in this assay (Q86WV6 whole entry, looked up, change not shown): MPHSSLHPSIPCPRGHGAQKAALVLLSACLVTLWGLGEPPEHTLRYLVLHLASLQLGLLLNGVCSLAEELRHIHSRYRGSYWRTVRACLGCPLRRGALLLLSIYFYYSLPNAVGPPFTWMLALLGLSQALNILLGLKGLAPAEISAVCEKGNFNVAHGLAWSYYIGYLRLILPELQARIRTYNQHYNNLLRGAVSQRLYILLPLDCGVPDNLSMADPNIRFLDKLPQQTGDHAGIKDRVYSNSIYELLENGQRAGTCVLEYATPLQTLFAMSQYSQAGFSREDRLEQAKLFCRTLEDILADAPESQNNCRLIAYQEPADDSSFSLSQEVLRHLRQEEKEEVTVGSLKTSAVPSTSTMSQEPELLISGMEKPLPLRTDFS
# [4] = biological target: T2, Stimulator of interferon genes protein (Mus musculus) (UniProt Q3TBT3); experiment: Inhibition of STING in mouse BMDM cells assessed as inhibition of cGAMP-induced CXCL-10 release at 0.05 to 0.5 uM pretreated with compound for 6 hrs followed by cGAMP addition and measured after 18 hrs by ELISA; assay type: cell-based; conditions: dose 0.05-0.5 µM, time 24.0 hrs
# T2 sequence (whole entry): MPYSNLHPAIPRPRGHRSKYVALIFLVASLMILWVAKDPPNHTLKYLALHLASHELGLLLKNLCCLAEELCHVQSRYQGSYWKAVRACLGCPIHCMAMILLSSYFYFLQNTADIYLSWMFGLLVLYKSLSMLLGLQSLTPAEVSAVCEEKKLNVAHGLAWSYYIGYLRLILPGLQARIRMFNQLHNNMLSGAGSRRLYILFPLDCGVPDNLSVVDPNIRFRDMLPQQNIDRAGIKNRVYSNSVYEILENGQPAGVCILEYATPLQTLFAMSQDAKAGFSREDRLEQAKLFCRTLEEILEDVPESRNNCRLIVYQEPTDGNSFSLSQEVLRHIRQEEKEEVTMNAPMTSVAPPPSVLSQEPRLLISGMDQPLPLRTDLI
# [5] = biological target: T2, Stimulator of interferon genes protein (Mus musculus); experiment: Inhibition of STING in mouse BMDM cells assessed as inhibition of LPS-induced IFN-beta release at 0.05 to 0.5 uM pretreated with compound for 6 hrs followed by LPS addition and measured after 18 hrs by ELISA; assay type: cell-based; conditions: dose 0.05-0.5 µM, time 24.0 hrs
# [6] = biological target: T2, Stimulator of interferon genes protein (Mus musculus); experiment: Inhibition of STING in mouse BMDM cells assessed as inhibition of poly(I:C) -induced IFN-beta release at 0.05 to 0.5 uM pretreated with compound for 6 hrs followed by poly(I:C) addition and measured after 18 hrs by ELISA; assay type: cell-based; conditions: dose 0.05-0.5 µM, time 24.0 hrs
# [7] = biological target: T2, Stimulator of interferon genes protein (Mus musculus); experiment: Inhibition of STING in mouse BMDM cells assessed as inhibition of ODN 2395-induced IFN-beta release at 0.05 to 0.5 uM pretreated with compound for 6 hrs followed by ODN 2395 addition and measured after 18 hrs by ELISA; assay type: cell-based; conditions: dose 0.05-0.5 µM, time 24.0 hrs
# [8] = biological target: T1, Stimulator of interferon genes protein; experiment: Inhibition of STING activation in human THP1-Blue ISG cells assessed as inhibition of c-GAMP-induced STING oligomerization at 0.1 to 1 uM preincubated with compound for 6 hrs followed by cGAMP addition and measured after 3 hrs by Western blotting analysis; assay type: cell-based; conditions: dose 0.1-1 µM, time 9.0 hrs
# Target sequence in this assay (Q86WV6 whole entry): as the sequence (Q86WV6 whole entry, looked up, change not shown) above
# [9] = tested on: Stimulator of interferon genes protein (Homo sapiens), Q86WV6 [UNDEFINED MUTATION]; experiment: Induction of STING S154 mutant degradation in human THP-1 cells at 1 uM incubated for 12 hrs by Western blotting analysis; assay type: cell-based
# [10] = tested on: Stimulator of interferon genes protein (Homo sapiens), Q86WV6 [UNDEFINED MUTATION]; experiment: Induction of STING S154 mutant degradation in human THP-1 cells at 1 uM incubated for 48 hrs by Western blotting analysis; assay type: cell-based
# [11] = tested on: Stimulator of interferon genes protein (Homo sapiens), Q86WV6 [UNDEFINED MUTATION]; experiment: Induction of STING S154 mutant degradation in human THP-1 cells by measuring maximum efficacy at 0.01 to 10 uM incubated for 24 hrs by Western blotting analysis relative to control; assay type: cell-based; conditions: dose 0.01-10 µM
# [12] = tested on: Stimulator of interferon genes protein (Homo sapiens), Q86WV6 [UNDEFINED MUTATION]; experiment: Induction of STING M155 mutant degradation in human THP-1 cells at 1 uM preincubated with MLN4924 for 2 hrs followed by compound addition and measured after 22 hrs by Western blotting analysis; assay type: cell-based
# [13] = tested on: Stimulator of interferon genes protein (Homo sapiens), Q86WV6 [UNDEFINED MUTATION]; experiment: Induction of STING M155 mutant degradation in human THP-1 cells at 1 uM preincubated with Baf A1 for 2 hrs followed by compound addition and measured after 22 hrs by Western blotting analysis; assay type: cell-based
# [14] = Metabolic stability in human liver microsomes assessed as half life at 10 uM in presence of NADPH by LC-MS/MS analysis; assay type: ADME, Microsome
# [15] = Cmax in mouse at 20 mg/kg, po by LC-MS/MS analysis; assay type: ADME, organism-based; conditions: in vivo, po, 20 mg/kg
# Sequence of Stimulator of interferon genes protein (Homo sapiens), Q86WV6 [UNDEFINED MUTATION] (Q86WV6 whole entry, looked up, change not shown): as the sequence (Q86WV6 whole entry, looked up, change not shown) above
# Sequence of Stimulator of interferon genes protein (Homo sapiens, UniProt Q86WV6, G230A/R293Q/R71H) (Q86WV6 whole entry R71H/G230A/R293Q): as the sequence (Q86WV6 whole entry, looked up, change not shown) above, with R71H, G230A, R293Q counted along it
smiles,measurement,setting,value
COc1ccc2c(c1)C(=O)N(c1ccc(C(C)(C)C)c(F)c1)C(c1cc3cc(-c4ccc(C(=O)Nc5ccc(O)c(NS(C)(=O)=O)c5)cc4)ccc3o1)C2C(N)=O (stereo unspecified),IC50,[1],110 nM
same,"inhibition at 24 h, 10 µM",[2],34.4%
same,IC50,[3],280 nM
same,inhibition,[4],Active
same,inhibition,[5],inactive
same,inhibition,[6],inactive
same,inhibition,[7],inactive
same,inhibition,[8],Active
same,Activity,[9],Active
same,Activity,[10],Active; Compound Showed Maximum Degradation
same,Emax,[11],89%
same,Activity,[12],Active
same,Activity,[13],inactive
same,half-life at 10 µM,[14],> 1 h
same,Cmax,[15],293 ng/mL
same,Cmax,[15]; read-out: Cmax,200 nM
